The source of these data is US20230151014A1 (Repare Therapeutics Inc., priority 2020, published 2023).

The test has as its target T1, recombinant human Myt1 (Homo sapiens, UniProt Q99640).
T1 construct: full length PKMYT1 recombinant human protein expressed in insect cells
T1 sequence (Q99640 1-499): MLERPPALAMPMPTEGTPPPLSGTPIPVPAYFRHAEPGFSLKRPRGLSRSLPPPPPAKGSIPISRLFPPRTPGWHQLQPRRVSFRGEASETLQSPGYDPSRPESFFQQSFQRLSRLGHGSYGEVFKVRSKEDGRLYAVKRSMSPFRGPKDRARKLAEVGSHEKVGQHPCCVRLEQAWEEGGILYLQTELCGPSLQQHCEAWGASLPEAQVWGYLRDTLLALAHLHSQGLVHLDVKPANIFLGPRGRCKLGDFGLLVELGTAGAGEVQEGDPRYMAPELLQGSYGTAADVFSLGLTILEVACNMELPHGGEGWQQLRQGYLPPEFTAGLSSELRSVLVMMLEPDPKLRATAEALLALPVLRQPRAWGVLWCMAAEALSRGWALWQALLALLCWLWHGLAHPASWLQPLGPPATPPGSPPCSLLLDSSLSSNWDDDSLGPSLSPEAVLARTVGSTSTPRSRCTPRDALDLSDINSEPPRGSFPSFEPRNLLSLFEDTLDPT
The test is described as follows: Myt1 enzymatic assay (ADP-Glo kinase assay, IC50 and % max inhibition). It counts as biochemical. The conditions noted are these: recombinant human Myt1 18 nM, ATP 10 μM. The method, boiled down: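 Compounds (0.5% DMSO) preincubated with recombinant human Myt1 for 15 min at 22° C, then ATP added and reaction run 60 min at 30° C.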
With `Cc1ccc(O)c(C)c1-n1c(N)c(C(N)=O)c2nc(-c3nc4ccccc4n3C)cnc21` [Compound 254], the half-maximal inhibitory concentration (IC50) (commonly the concentration at which inhibition is half-maximal) was 10 nM. Next, `Cc1ccc(O)cc1-n1c(N)c(C(N)=O)c2ncc(-c3cn[nH]c3)nc21` [Compound 155]: 1020 nM; `Cc1ccc(O)cc1-n1c(N)c(C(N)=O)c2nc(-c3cccc(C#N)c3)ccc21` [Compound 14]: 480 nM. With `Cc1ccc(O)cc1-n1c(N)c(C(N)=O)c2ncc(CCc3cccnc3)nc21` [Compound 162, 6-amino-5-(5-hydroxy-2-methyl-phenyl)-3-[2-(3-pyridyl)ethyl]pyrrolo[2,3-b]pyrazine-7-carboxamide], the IC50 is 596 nM.

Consider `Cc1ccc(O)c(C)c1-n1c(N)c(C(N)=O)c2ncc(C#CC3(C)CCCO3)nc21` (stereo not shown) [Compound 235], for which the IC50 was 13 nM. The same measure for `CCNC(=O)c1cnc2c(n1)c(C(N)=O)c(N)n2-c1c(C)ccc(O)c1C` [Compound 244]: 16 nM; for `Cc1ccc(O)c(C)c1-n1c(N)c(C(N)=O)c2nc(C3(C(F)(F)F)CC3)cnc21` [Compound 198, 6-amino-5-(3-hydroxy-2,6-dimethyl-phenyl)-2-[1-(trifluoromethyl)cyclopropyl]pyrrolo[2,3-b]pyrazine-7-carboxamide]: less than 10 nM; for `Cc1ccc(O)c(C)c1-n1c(N)c(C(N)=O)c2cc(Br)c(C)nc21` [Compound 187]: less than 10 nM.

For `Cc1ccc(O)c(C)c1-n1c(N)c(C(N)=O)c2nc(-c3nc(C)c(C)o3)cnc21` [Compound 255], the IC50 was found to be 109 nM. Next, `Cc1ccc(O)c(C)c1-n1c(N)c(C(N)=O)c2nc(C3=CCCCC3)cnc21` [Compound 86]: less than 10 nM; `Cc1ccc(O)cc1-n1c(N)c(C(N)=O)c2nc(C3=CCCC3)ccc21` [Compound 6, 2-amino-5-(cyclopenten-1-yl)-1-(5-hydroxy-2-methyl-phenyl)pyrrolo[3,2-b]pyridine-3-carboxamide]: 1240 nM; `Cc1ccc(O)cc1-n1c(N)c(C(N)=O)c2nc(-c3nccs3)ccc21` [Compound 24]: 29 nM.

Take `Cc1ccc(O)c(C)c1-n1c(N)c(C(N)=O)c2nc(N3CC4(COC4)C3)cnc21` [Compound 253]: the IC50 turned out to be 24 nM. The same measure for `Cc1ccc(O)c(C)c1-n1c(N)c(C(N)=O)c2nc(N3CCN(C)CC3)cnc21` [Compound 53]: 16 nM; for `Cc1ccc(O)c(C)c1-n1c(N)c(C(N)=O)c2nc(C3CC3)c(C)nc21` [Compound 100]: less than 10 nM. Next, `Cc1ccc(O)c(C)c1-n1c(N)c(C(N)=O)c2nc(C#CCN3CCOCC3)cnc21` [Compound 217]: 168 nM; `Cc1ccc(O)c(C)c1-n1c(N)c(C(N)=O)c2ncc(C#C[C@@H](C)O)nc21` [Compound 241]: 24 nM.

Regarding `Cc1ccc(O)c(C)c1-n1c(N)c(C(N)=O)c2nc(N3CCNC(=O)C3)cnc21` [Compound 66], the concentration for half-maximal inhibition (IC50) turned out to be 10 nM. Regarding `Cc1ccc(O)c(C)c1-n1c(N)c(C(N)=O)c2ncc(C#CC3CCOCC3)nc21` [Compound 225], the IC50 turned out to be 34 nM. With `Cc1ccc(O)cc1-n1c(N)c(C(N)=O)c2nc(-c3ccc(C(=O)O)cc3)ccc21` [Compound 10], the IC50 was 187 nM. Next, `Cc1ccc(O)c(C)c1-n1c(N)c(C(N)=O)c2cc(C(F)(F)F)cnc21` [Compound 221, 2-amino-1-(3-hydroxy-2,6-dimethyl-phenyl)-5-(trifluoromethyl)pyrrolo[2,3-b]pyridine-3-carboxamide]: 81 nM. With `Cc1ccc(O)c(C)c1-n1c(N)c(C(N)=O)c2nc(CCC3CCCN3)cnc21` (stereo not shown) [Compound 2, 6-amino-5-(3-hydroxy-2,6-dimethylphenyl)-2-(2-(pyrrolidin-2-yl)ethyl)-5H-pyrrolo[2,3-b]pyrazine-7-carboxamide], the IC50 was determined as 231 nM. Next, `CCN(CC)c1cnc2c(n1)c(C(N)=O)c(N)n2-c1c(C)ccc(O)c1C` [Compound 88]: less than 10 nM. As for `Cc1c(O)ccc(Br)c1-n1c(N)c(C(N)=O)c2cc(Cl)cnc21` [Compound 301], the IC50 was 13 nM. Next, `Cc1ccc(O)c(C)c1-n1c(N)c(C(N)=O)c2ncc(C#CC3(O)CCOC3)nc21` (stereo not shown) [Compound 236]: 16 nM. Next, `Cc1ccc(O)c(C)c1-n1c(N)c(C(N)=O)c2nc3c(nc21)CCCC3` [Compound 262]: less than 10 nM. As for `Cc1ccc(O)c(C)c1-n1c(N)c(C(N)=O)c2ncc(C#CC(C)(C)NS(C)(=O)=O)nc21` [Compound 223], the IC50 turned out to be 15 nM. The same measure for `Cc1ccc(O)cc1-n1c(N)c(C(N)=O)c2nccnc21` [Compound 146]: 1420 nM.
